Measurements published in patent publication US9102623B2, “Pyridinecarboxamides, useful-plant-protecting composition comprising them and processes for their preparation and their use” (Bayer Cropscience AG, priority 2007, dated 2015).

system: corn; test: Post-emergence safener action in corn with the herbicide tembotrione; assay type: in vivo; details: greenhouse, visual scoring of damage
Source text: (§1) The damage to the plants is scored visually using a scale of 0-100%, in comparison to control plants:
(§2) 0%=no noticeable effect compared to the untreated plant
(§3) 100%=the treated plants dies.
(§4) Seeds or rhizome pieces of monocotyledonous and dicotyledonous harmful plants and crop plants are placed in sandy loam soil in plastic pots, covered with soil and cultivated in the greenhouse under good growth conditions. Alternatively, harmful plants encountered in paddy rice cultivation are cultivated in pots in which the surface of the soil is covered by up to 2 cm of water. Three weeks after sowing, the test plants are treated at the three-leaf stage. The herbicide/safener active compound combinations according to the invention, formulated as emulsion concentrates, and in parallel tests the individual active compounds formulated in a corresponding manner, are sprayed at various dosages at a water application rate of […] (converted) onto the green parts of the plants, and, after the test plants were left to stand in the greenhouse for about 2 to 3 weeks under optimum growth conditions, the effect of the preparations is scored visually in comparison to untreated controls. In the case of rice or harmful plants encountered in the cultivation of rice, the active compounds are also added directly to the irrigation water (application analogously to the so-called granule application) or sprayed onto the plants and into the irrigation water. […]

| Compound | safener action for the herbicide tembotrione |
| --- | --- |
| CC(C)NC(=O)c1ccc(C(F)(F)C(F)(F)Cl)[nH]c1=O [Compound 1485] | good safener action |
| CC(C)(C)CNC(=O)c1ccc(C(F)(F)C(F)(F)C(F)(F)F)[nH]c1=O [Compound 1619] | good safener action |
| CCC(CC)NC(=O)c1ccc(C(F)(F)C(F)(F)C(F)(F)F)[nH]c1=O [Compound 1646] | good safener action |
| CC(C)NC(=O)c1ccc(C(F)(F)Cl)[nH]c1=O [Compound 118] | good safener action |
| CN(C)C(=O)c1ccc(C(F)(F)C(F)(F)C(F)(F)F)[nH]c1=O [Compound 1604] | good safener action |
| CCCCNC(=O)c1ccc(C(F)(F)F)[nH]c1=O [Compound 6] | good safener action |
| CC(C)NC(=O)c1ccc(C(F)(F)C(F)F)[nH]c1=O [Compound 1371] | good safener action |
| CC(C)NC(=O)c1ccc(C(F)(F)F)[nH]c1=O [Compound 4] | good safener action |
| O=C(NC1CCC1)c1ccc(C(F)(F)C(F)(F)Cl)[nH]c1=O [Compound 1488] | good safener action |
| CCCC(C)NC(=O)c1ccc(C(F)(F)F)[nH]c1=O (centres unmarked) [Compound 43] | good safener action |
| O=C(NCc1ccc(Cl)nc1)c1ccc(C(F)(F)F)[nH]c1=O [Compound 95] | good safener action |
| CCNC(=O)c1cc(Br)c(C(F)F)[nH]c1=O [Compound 1139] | good safener action |
| C=CCNC(=O)c1ccc(C(F)(F)C(F)(F)C(F)(F)F)[nH]c1=O [Compound 1629] | good safener action |
| CCC(CC)NC(=O)c1ccc(C(F)(F)F)[nH]c1=O [Compound 51] | good safener action |
| CCCC(C)NC(=O)c1ccc(C(F)(F)C(F)(F)C(F)(F)F)[nH]c1=O (centres unmarked) [Compound 1638] | good safener action |

system: barley; test: Post-emergence safener action in barley with the herbicide mesosulfuron-methyl; assay type: in vivo; details: greenhouse, visual scoring of damage
Source text: as §1, §2, §3, §4

| Compound | safener action for the herbicide mesosulfuron-methyl |
| --- | --- |
| CCCNC(=O)c1ccc(C(F)(F)Cl)[nH]c1=O [Compound 117] | good safener action |
| COCCCNC(=O)c1ccc(C(F)(F)C(F)(F)F)[nH]c1=O [Compound 407] | good safener action |
| CCNC(=O)c1cc(Cl)c(C(F)(F)Cl)[nH]c1=O [Compound 571] | good safener action |
| CCCCNC(=O)c1ccc(C(F)(F)C(F)(F)Cl)[nH]c1=O [Compound 1487] | good safener action |
| CCN(C)C(=O)c1ccc(C(F)(F)Cl)[nH]c1=O [Compound 124] | good safener action |
| CCCNC(=O)c1ccc(C(F)(F)F)[nH]c1=O [Compound 3] | good safener action |
| COCC(C)NC(=O)c1cc(Br)c(C(F)F)[nH]c1=O (centres unmarked) [Compound 1201, 5-Bromo-6-(difluoromethyl)-N-(2-methoxy-1-methylethyl)-2-oxo-1,2-dihydropyridine-3-carboxamide] | good safener action |
| CNC(=O)c1cc(Br)c(C(F)(F)F)[nH]c1=O [Compound 910] | good safener action |
| O=C(NC1CCC1)c1cc(Br)c(C(F)(F)Cl)[nH]c1=O [Compound 1030] | good safener action |
| CC(C)N(C)C(=O)c1ccc(C(F)(F)F)[nH]c1=O [Compound 13] | good safener action |
| CCCC(C)NC(=O)c1ccc(C(F)(F)Cl)[nH]c1=O (centres unmarked) [Compound 157] | good safener action |
| COCCNC(=O)c1ccc(C(F)(F)Cl)[nH]c1=O [Compound 171, 6-[Chloro(difluoro)methyl]-N-(2-methoxyethyl)-2-oxo-1,2-dihydropyridine-3-carboxamide] | good safener action |
| NC(=O)c1cc(Br)c(C(F)(F)Cl)[nH]c1=O [Compound 1023] | good safener action |
| COCCNC(=O)c1ccc(C(F)(F)C(F)(F)F)[nH]c1=O [Compound 398] | good safener action |
| CNC(=O)c1ccc(C(F)(F)C(F)(F)F)[nH]c1=O [Compound 342] | good safener action |
| O=C(NCC(F)(F)C(F)(F)F)c1ccc(C(F)(F)F)[nH]c1=O [Compound 25] | good safener action |
| CC(C)C(C)NC(=O)c1ccc(C(F)(F)Cl)[nH]c1=O (centres unmarked) [Compound 163] | good safener action |
| CCC(C)NC(=O)c1cc(Br)c(C(F)(F)F)[nH]c1=O (centres unmarked) [Compound 950] | good safener action |
| CNC(=O)c1ccc(C(F)(F)F)[nH]c1=O [Compound 1] | good safener action |
| CCCC(C)NC(=O)c1ccc(C(F)(F)C(F)(F)F)[nH]c1=O (centres unmarked) [Compound 384] | good safener action |
| CCNC(=O)c1ccc(C(F)(F)Cl)[nH]c1=O [Compound 116] | good safener action |
| CCC(CC)NC(=O)c1cc(I)c(C(F)(F)Cl)[nH]c1=O [Compound 1907, 6-[Chloro(difluoro)methyl]-N-(1-ethylpropyl)-5-iodo-2-oxo-1,2-dihydropyridine-3-carboxamide] | good safener action |
| COC(CNC(=O)c1ccc(C(F)(F)Cl)[nH]c1=O)OC [Compound 168] | good safener action |
| C#CCN(C)C(=O)c1ccc(C(F)(F)F)[nH]c1=O [Compound 40] | good safener action |

| Compound | safener action for the herbicide mesosulfuron-methyl |
| --- | --- |
| CNC(=O)c1ccc(C(F)(F)Cl)[nH]c1=O [Compound 115] | good safener action |
| COCC(C)NC(=O)c1ccc(C(F)(F)C(F)(F)F)[nH]c1=O (centres unmarked) [Compound 405] | good safener action |
| O=C(NCC1CC1)c1ccc(C(F)(F)Cl)[nH]c1=O [Compound 136] | good safener action |
| CN(C)C(=O)c1ccc(C(F)(F)Cl)[nH]c1=O [Compound 123] | good safener action |
| CCC(C)NC(=O)c1ccc(C(F)(F)C(F)(F)F)[nH]c1=O (centres unmarked) [Compound 382, N-(1-Methylpropyl)-2-oxo-6-(pentafluoroethyl)-1,2-dihydropyridine-3-carboxamide] | good safener action |
| O=C(NCC(F)(F)F)c1ccc(C(F)(F)F)[nH]c1=O [Compound 26] | good safener action |
| O=C(NC1CC1)c1ccc(C(F)(F)Cl)[nH]c1=O [Compound 119] | good safener action |
| COCCNC(=O)c1ccc(C(F)(F)F)[nH]c1=O [Compound 57] | good safener action |
| O=C(NC1CC1)c1ccc(C(F)(F)C(F)(F)F)[nH]c1=O [Compound 346] | good safener action |
| CCN(C(=O)c1ccc(C(F)(F)Cl)[nH]c1=O)C(C)C [Compound 130] | good safener action |
| O=C(NCC1CC1)c1ccc(C(F)(F)F)[nH]c1=O [Compound 22] | good safener action |
| CCC(CC)NC(=O)c1ccc(C(F)(F)Cl)[nH]c1=O [Compound 165] | good safener action |
| O=C(NC1CC1)c1ccc(C(F)(F)F)[nH]c1=O [Compound 5] | good safener action |
| CC(C)CNC(=O)c1ccc(C(F)(F)F)[nH]c1=O [Compound 30] | good safener action |
| NC(=O)c1ccc(C(F)(F)C(F)(F)Cl)[nH]c1=O [Compound 1481, 6-(2-Chloro-1,1,2,2-tetrafluoroethyl)-2-oxo-1,2-dihydropyridine-3-carboxamide] | good safener action |
| C#CCN(C)C(=O)c1ccc(C(F)(F)Cl)[nH]c1=O [Compound 154] | good safener action |
| CCCCNC(=O)c1cc(Br)c(C(F)(F)Cl)[nH]c1=O [Compound 1029] | good safener action |
| CCCNC(=O)c1ccc(C(F)(F)C(F)(F)F)[nH]c1=O [Compound 344] | good safener action |
| CC(C)(C)CNC(=O)c1ccc(C(F)(F)Cl)[nH]c1=O [Compound 138] | good safener action |
| CCN(CC)C(=O)c1ccc(C(F)(F)Cl)[nH]c1=O [Compound 128] | good safener action |
| CCCCCNC(=O)c1ccc(C(F)(F)Cl)[nH]c1=O [Compound 134] | good safener action |
| O=C(NC1CCC1)c1ccc(C(F)(F)F)[nH]c1=O [Compound 7, N-Cyclobutyl-2-oxo-6-(trifluoromethyl)-1,2-dihydropyridine-3-carboxamide] | good safener action |
| NC(=O)c1cc(Cl)c(C(F)(F)F)[nH]c1=O [Compound 455, 5-Chloro-2-oxo-6-(trifluoromethyl)-1,2-dihydropyridine-3-carboxamide] | good safener action |
